In the test the test system is ⍺4β7 on RPMI8866 cells. Description: Flow cytometry: ligand staining of ⍺4β7-expressing cells in buffers with different divalent cations. In kind it is binding, human. The note with it: absence of divalent cations (0.1 mM EDTA). The source says:
Fig 1 Binding of soluble CD4 to ⍺4β7 on CD4^+ T cells. (A) Schematic of D1D2-Ig⍺tp. (B) Flow-cytometry histogram of PE-conjugated D1D2-Ig⍺tp staining of CD4^+ T cells alone (blue) or in the presence of either the anti ⍺4 mAb 2B4 (green) or an irrelevant mAb (black-dashed). Cells stained with PE-conjugated MicA-Ig⍺tp (red), along with unstained cells (grey) are included. X-axis indicates geometric mean fluorescence intensity (gMFI). (C) 293T cells untransfected or co-transfected with ⍺4 and β7 expression vectors stained with either PE-D1D2-Ig⍺tp or PE-MAdCAM-Ig in the absence or presence of the ⍺4 antagonist FG. Y-axis indicates gMFI. (D) CD4^+ T cells stained with anti CD45RO (x-axis) anti β7 (y-axis) (left), or with anti CD45RO (x-axis) and D1D2-Ig⍺tp (y-axis) (right). % cells in each quadrant, as indicated. (E) CD4^+ T cells stained as in B, with lower MW forms of oligomerized D1D2-Ig⍺tp. Left Y-axis indicates gMFI (bars), right Y-axis indicates relative MW (kDa) (•). […]
Cells were stained with fluoresceine conjugated mAbs or recombinant proteins using standard procedures preceded by Fc receptor blocking with human IgG. […] Data were acquired using a FACSCanto II (BD Biosciences) and analyzed with FlowJo software (BD Biosciences). […]

As to “MAdCAM-Ig: recombinant MAdCAM-1 Ig fusion, R&D Systems [reference compound]”, the “binding to ⍺4β7 (in words)” value is on record as “failed to bind”.
